What was measured:
T4302 CD133+ cells = experiment: Caspase 3/7 activation (apoptosis); format: cell-based, human; details: 100 nM, day 3
Method: (A) T4302 CD133+ GBM stem cells were enriched from freshly collected subcutaneous xenograft tumors, cultured in stem cell media. Cells were left unirradiated or irradiated at 3 Gy. The relative mRNA levels of Hes2 were determined by quantitative real-time PCR at the time points as indicated. (B) T4302 CD133+ cells were pre-treated with vehicle (DMSO), 2 μM DAPT or 0.5 μM L685,458 for 4 hours and irradiated as indicated. Cells were then plated to form neurospheres. Fourteen days after plating, neurospheres containing more than 50 cells were scored. To determine the surviving fractions, the number of neurosphere at each radiation dose was normalized to that of the corresponding sham-irradiated group. (C) T4302 CD133+ cells were treated with GSIs±radiation as indicated. Relative caspase 3/7 activities were determined by normalizing caspase activities to the corresponding cell numbers. (D), (E) T4302 CD133+ cells were infected with lentivirus directing expression of non-targeting shRNA or shRNAs specific to Notch1 or Notch2 (KD-Notch1 or KD-Notch2), and selected with puromycin. Relative caspase 3/7 activities and clonogenic survival were determined as described above. (F) T4302 CD133+ cells were infected with control lentivirus or lentivirus directing expression of NICD2. Clonogenic survival was determined as described above. *: p<0.05 by Student's t-test; #: p<0.01 by one-way ANOVA.
(A, B) T4302 CD133+ cells were treated with 100 nM RO4929097 (GSI) and/or 100 nM tipifarnib (FTI) for 4 hours prior to 3 Gy radiation. (A) Cell growth on day 5 and (B) caspase 3/7 activation on day 3 were determined as described in FIG. 4. #: p<0.001 by one-way ANOVA, combo vs. single agents. (C) The effects of GSIs and FTI against growth of T4302 CD133− cells were determined as described in panel A. (D, E) T4302 CD133+ cells were treated with GSI, FTI, or a 1:1 mixture at different concentrations (ranging from 3000 nM to ˜0.5 nM, 1:3 dilution)±3 Gy radiation. Cell viability was determined at 5 days after treatment in comparison to vehicle-treated groups. […] (F) T4302 CD 133+ cells were treated by GSI±FTI with a 2-fold dilution. Neurospheres were countered on day 10, and normalized to the vehicle-treated group.

cleaved Notch1 = experiment: IHC staining for cleaved Notch1 in intracranial tumors; format: in vivo, Mice; details: oral 30 mg/kg/day, 7 days
Method: (A, B) T4302 CD133+ cells were treated with 100 nM GSI±FTI for 48 hours and lysed in RIPA buffer. Mice bearing intracranial T4302 tumors were orally treated with 30 mg/kg/day GSI once a day (q.d.)±100 mg/kg/day FTI twice a day (b.i.d.) for 7 days. Brains were resected and homogenized in RIPA buffer. All lysates were blotted with an antibody specific to prelamin A. (B) Additional brains were fixed and resected for IHC staining for cleaved Notch1. (C) T4302 CD133+ cells were infected with lentivirus expressing firefly luciferase and selected with puromycin for two days. Athymic nude mice were intracranially implanted with 5,000 cells, maintained for 10 days, and treated with GSI±FTI for 20 days as described above. In a separated experiment, animals were treated by the same protocol, except they were given 2 doses of 4 Gy X-ray irradiation on day 11 and day 12, 4 hours after drug administration. These mice were on drugs for 30 days. The median survival was calculated by the GraphPad Prism 5 software. (D) Animals in the unirradiated experiment were tracked for their tumor progression by bioluminescence imaging. The Y axis is set in a log scale. (E,F) The survival curves of these two experiments are shown.

Ras = experiment: Active Ras pull-down assay in T4302 CD133+ cells; format: cell-based, human; details: 200 nM; after radiation exposure
Method: (A) T4302 CD133+ cells were infected with NICD2-lentivirus and treated with 2 μM DAPT±3 Gy radiation. Cells were collected at 24 or 48 hours after treatment. Protein levels of phospho-s473 Akt, total Akt and actin were blotted. (B) Control CD133+ cells or NICD2-expressing cells were pre-treated with 10 μM PI3K inhibitor (LY294002), or 50 μM Akt inhibitor (SH-6) for 4 hours prior to radiation. Relative caspase 3/7 activity was determined at 48 hours after radiation as described in FIG. 3C. (C) T4302 CD133+ cells were treated with 200 nM RO4929097 (GSI)±3 Gy. Active Ras levels were determined by a Ras Pull Down Assay kit using a pan-Ras antibody (Pierce). (D, E) T4302 cells were infected with H-Ras V12-lentivirus. Cells were treated with 200 nM RO4929097 (GSI)±3 Gy. Growth of cells was determined at day 5 after treatment (CellTiter-Glo assay, Promega). Relative caspase 3/7 activity was determined at 48 hours after treatment. […] Equal amounts of protein were resolved by SDS-PAGE and analyzed by immunoblotting with indicated antibodies. *: p<0.05 by Student's t-test.
Potential mechanisms that mediate Notch-dependent Akt activation were examined next. […] Using an active Ras pull-down assay kit (Pierce), the activation status of Ras signaling can be determined as the amount of Ras-GTP co-purified with a GST-tagged Ras-binding domain of c-Raf. […]

## CC(C)(C(=O)NCC(F)(F)C(F)(F)F)C(=O)N[C@@H]1C(=O)Nc2ccccc2-c2ccccc21 [RO4929097]
T4302 CD133+ cells; absence of radiation
  caspase 3/7 activation, in words: without apparent activation of apoptosis
T4302 CD133+ cells; following 3-Gy radiation
  increase of caspase 3/7 activity compared with the sham-treated group: approximately 2 fold
Cleaved Notch1
  levels of cleaved Notch1 in intracranial tumors (IHC): decreased the levels of cleaved Notch1
Ras
  active Ras levels: decreased active Ras levels

— patent publication US8853274B1, “Compositions and methods for targeting glioblastomas cells” (Vanderbilt University, priority 2011, dated 2014)
